Laboratory results from ChEMBL document CHEMBL5143518, “Pyridazino-pyrrolo-quinoxalinium salts as highly potent and selective leishmanicidal agents targeting trypanothione reductase” (Eur J Med Chem, 2022).
Calls of active or inactive are those of the source. No cut-off for these calls is given here.

Experiments:
Trypanothione reductase [1] = target: T1, Trypanothione reductase (Leishmania infantum, UniProt A4HSF7); assay: Inhibition of recombinant His-tagged Leishmania infantum TryR oxidoreductase activity expressed in Escherichia coli BL21 (DE3) using TS2 and NADPH as substrate by DTNB-reagent based spectrophotometric method
Leishmania infantum [2] = assay: Leishmanicidal activity against axenic amastigote stage of Leishmania infantum MCAN/ES/89/IPZ229/1/89 assessed as reduction of proliferation of amastigotes incubated for 24 hrs by propidium iodide staining based flow cytometry; type: functional, organism-based; settings: MCAN/ES/89/IPZ229/1/89, 24 h
[3] = Cytotoxicity against human THP-1 cells assessed as reduction in cell proliferation incubated for 24 hrs by propidium iodide staining based flow cytometry
[4] = Selectivity index, ratio of LC50 for cytotoxicity against human THP-1 cells to EC50 of leishmanicidal activity against axenic amastigote stage of Leishmania infantum MCAN/ES/89/IPZ229/1/89
Leishmania infantum [5] = assay: Leishmanicidal activity against GFP-expressing axenic amastigote stage of Leishmania infantum MCAN/ES/89/IPZ229/1/89 infected in human THP-1 macrophage cells assessed as reduction in intracellular amastigotes incubated for 48 hrs by propidium iodide staining based flow cytometry; type: functional, organism-based; settings: MCAN/ES/89/IPZ229/1/89, THP-1, 48 h
Trypanothione reductase [6] = target: T1, Trypanothione reductase; assay: Non competitive type inhibition of recombinant His-tagged Leishmania infantum TryR oxidoreductase activity expressed in Escherichia coli BL21 (DE3) assessed as inhibition constant using NADPH and varying concentration of TS2 as substrate by double reciprocal Lineweaver-Burk plot analysis
[7] = target: Trypanothione reductase (Leishmania infantum) (UniProt A4HSF7); assay: Uncompetitive type inhibition of recombinant His-tagged Leishmania infantum TryR oxidoreductase activity expressed in Escherichia coli BL21 (DE3) assessed as inhibition constant using TS2 and varying concentration of NADPH as substrate by double reciprocal Lineweaver-Burk plot analysis
[8] = target: Trypanothione reductase (Leishmania infantum) (UniProt A4HSF7); assay: Inhibition of recombinant His-tagged Leishmania infantum TryR expressed in Escherichia coli BL21 (DE3) assessed as TryR mediated cytochrome c reduction in presence of NADPH at 10 uM by spectrophotometric method

T1 sequence (A4HSF7 whole entry): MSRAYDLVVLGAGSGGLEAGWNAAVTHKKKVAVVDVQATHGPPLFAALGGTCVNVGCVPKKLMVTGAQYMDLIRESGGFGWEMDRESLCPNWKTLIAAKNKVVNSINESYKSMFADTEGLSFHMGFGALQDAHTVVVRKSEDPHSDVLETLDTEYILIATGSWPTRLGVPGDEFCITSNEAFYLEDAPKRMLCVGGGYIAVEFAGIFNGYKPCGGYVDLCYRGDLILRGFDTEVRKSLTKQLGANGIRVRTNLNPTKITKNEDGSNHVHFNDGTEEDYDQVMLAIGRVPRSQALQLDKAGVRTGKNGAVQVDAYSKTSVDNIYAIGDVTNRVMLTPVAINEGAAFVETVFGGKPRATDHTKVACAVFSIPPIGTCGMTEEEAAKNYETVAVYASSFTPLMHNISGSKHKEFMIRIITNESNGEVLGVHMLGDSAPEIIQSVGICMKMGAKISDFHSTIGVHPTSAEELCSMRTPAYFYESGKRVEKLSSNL
Trypanothione reductase (Leishmania infantum), sequence (A4HSF7 as listed by the source): as the sequence (A4HSF7 whole entry) above

Structure (SMILES)	IC50 (Trypanothione reductase [1])	EC50 (Leishmania infantum [2])	CC50 at 24 h [3]	selectivity ratio [4]	EC50 (Leishmania infantum [5])	Ki (Trypanothione reductase [6])	alphaKi [7]	inhibition [8]
CCN(CC)CCCC(C)Nc1c2ccc(Cl)cc2nc2ccc(OC)cc12 (stereo not drawn) [QUINACRINE]	13500 nM	–	–	–	–	–	–	–
CCc1cc2c3ccc(Br)n3c3cc(Cl)ccc3[n+]2nc1CC	2980 nM	80 nM	6850 nM	85.6	1230 nM	2830 nM	1.37 µM	Active
CCc1cc2c3cccn3c3cc(Cl)ccc3[n+]2nc1CC	25700 nM	80 nM	24300 nM	304	3100 nM	–	–	–
CCCCCCCCCCCCCCCCOP(=O)([O-])OCC[N+](C)(C)C [MILTEFOSINE]	–	520 nM	7690 nM	14.8	550 nM	–	–	–
